Measurements from patent publication EP4640213A1, “ORAL PHARMACEUTICAL PREPARATION COMPRISING SODIUM-GLUCOSE COTRANSPORTER-2 INHIBITOR AND ANGIOTENSIN II RECEPTOR BLOCKER” (THPharm Corp., priority 2022, dated 2024).

Experiments:
[1] = Drug-drug compatibility test under accelerated stability conditions; format: physicochemical
Procedure: Specifically, after storing a mixture of ARB and SGLT-2 inhibitor for 4 weeks under accelerated stability test conditions (40 ± 2°C/75 ± 5% relative humidity), changes in the contents of each ingredient and flexible substance and changes in properties (color, agglomeration, etc.) were analyzed. Olmesartan, Valsartan, and Telmisartan were used as ARBs, and Empagliflozin, Dapagliflozin (Dapagliflozin propanediol monohydrate), and Canagliflozin were used as SGLT-2 inhibitors. [Table 4] […] To observe the properties and viscosity of the main ingredients, 10 g of the mixtures of ARBs and SGLT-2 inhibitors stored for 1, 2, 3, and 4 weeks were taken and exposed to 100 ml of purified water at room temperature for 10 minutes, and then the properties and viscosity were identified.

[2] = test system: angiotensin converting enzyme (ACE); assay: ACE mRNA expression (RT-PCR) in LPS inflammation-induced H9c2 cells; format: cell-based, rat; conditions: for mRNA expression of ACE: alone administration, FIGS. 5 and 6
Procedure: Specifically, H9c2 cells as a […] cardiac cell line were obtained and used from the Korea Cell Line Bank (KCLB 40071, Korea) and incubated and prepared in a DMEM medium supplemented with 10% FBS and 1% antibiotic-antimycotic (10 units/ml penicillin, 100 µg/ml streptomycin, 0.25 µg/ml amphotericin) under 37°C and 5% CO2 conditions.
To confirm the effect on ACE activity, the prepared H9c2 cells were treated with 2.5 µg/ml of Lipopolysaccharide (LPS), which was 2.5 times more than the amount used in conventional inflammation-related experiments, to induce inflammation, thereby setting the optimized conditions for confirming ACE expression. LPS inflammation-induced H9c2 cells were treated with 10, 25, and 50 µM Telmisartan or olmesartan, respectively, and the H9c2 cells were harvested for ELISA assay. The harvested cells were treated with 1 ml of an RIPA buffer and stirred at 4°C for 30 minutes to extract proteins. Thereafter, the proteins were centrifuged at 4°C and 10,000 rpm for 20 minutes, and the supernatant was transferred to a sterilized tube and stored at - 80°C for use in the ELISA assay.
Specifically, LPS inflammation-induced H9c2 cells in Experimental Example 1-2 were treated with 10 or 25 µM Telmisartan and 10 or 50 µM olmesartan, and then treated with 200 µl of chloroform together with 1 ml of TRIZol (Sigma, USA), gently mixed, and separated for 10 minutes, and then centrifuged at 4°C and 10,000 rpm for 10 minutes. After centrifugation, only the supernatant from the tube was taken and transferred to a new sterile tube, and the supernatant was treated with 500 µl of isopropanol to precipitate RNA. The precipitated RNA was centrifuged at 4°C, 10,000 rpm for 10 minutes, and then the supernatant except for the pellets in the tube was fully removed, and the RNA pellets were treated with 500 µl of 75% ethyl alcohol and thoroughly washed. The washed pellets were centrifuged at 4°C, 10,000 rpm for 5 minutes, and then the supernatant except the pellets was fully removed. The tube containing the pellets from which the supernatant had been cleanly removed was treated with diethyl pyrocarbonate (DEPC)-water and stored at - 80°C for use in an RT-PCR experiment.
RT-PCR was performed by synthesizing cDNA from mRNA using an RT-PCR kit containing DNA polymerase, buffer, dNTP, and tracking dye, and then using ACE primers in Table 1 under the conditions in Table 2 for 35 cycles. The PCR products were electrophoresed on a […] agarose gel, identified using a UV transilluminator, and expressed as normalized to GAPDH for quantitative comparison.
In order to confirm the effect of each combination or single substance on the mRNA expression of ACE, the experimental samples in Table 3 were treated to H9c2 cells induced with LPS inflammation in Experimental Example 1-2, respectively, and then the mRNA expression of ACE was evaluated in the same manner as in Experimental Example 1-3.

[3] = Single oral administration pharmacokinetic test; conditions: beagle dogs
Procedure: The control and test drugs were administered orally once by a single tablet, and were crossed over (4 × 4 cross over) four times at one-week intervals. Fasting was performed from 5 to 6 pm the day before administration. The control and test drugs were administered into the tongue root, and then administered with approximately 15 ml of water, and feed was provided approximately 4 hours after administration. Blood was collected at 0 (blank), 0.25, 0.5, 0.75, 1, 1.5, 2, 3, 4, 5, 6, 8, 12, and 24 hours (14 times) after administration of the control and test drugs, and left by a 7-day drug-free period.

[4] = 4-week repeated oral administration toxicity; format: in vivo, Sprague-Dawley rats; conditions: oral daily for 4 weeks
Procedure: During the test, general symptom observation, blood test, and body weight measurement were performed, and after the observation period ended, the rats were euthanized and autopsied.

A549 cells = assay: Cell survival rate (MTT) in A549 cells; format: cell-based; conditions: up to a concentration of 25 µM, 24 and 48 hours, FIGS. 1A, 1B
Procedure: (§1) To screen angiotensin II receptor blockers for use in combinations of angiotensin II receptor blockers (ARBs) and sodium-glucose cotransporter-2 (SGLT-2) inhibitors for the treatment of heart failure, cell survival rates were evaluated.
(§2) Specifically, A549 cells were obtained from the Korean Cell Line Bank (KCLB) and subcultured using a RPMI-1640 medium supplemented with 10% fetal bovine serum (FBS) and 1% Penicillin, and MDCK cells were obtained from ATCC and subcultured using a DMEM medium supplemented with 10% FBS. 200 µl each of the A549 cells and MDCK cells incubated in an incubator under 37°C and 5% CO2 conditions were dispensed at 2 × 10^4 cells/well in a 96-well plate, and then a control group was treated with 100 µl of the medium, and experimental groups were treated with 1.25, 25, 50, and 100 µM of Telmisartan or olmesartan, respectively. After 24 and 48 hours, all of the wells were treated with 50 µl each of a 2 mg/ml MTT reagent and incubated in an incubator for 3 hours, and then each well was added with […] of DMSO, wrapped in foil, stirred for 30 minutes at room temperature, and the absorbance was measured at 570 nm to obtain the cell survival rate.

MDCK cells = assay: Cell survival rate (MTT) in MDCK cells; format: cell-based; conditions: up to a concentration of 25 µM, 24 and 48 hours, FIGS. 2A, 2B
Procedure: as §1, §2

[5] = test system: angiotensin converting enzyme (ACE); assay: ACE ELISA assay (ACE protein expression) in LPS inflammation-induced H9c2 cells; format: cell-based, rat; conditions: FIG. 3
Procedure: Specifically, H9c2 cells as a human cardiac cell line were obtained and used from the Korea Cell Line Bank (KCLB 40071, Korea) and incubated and prepared in a DMEM medium supplemented with 10% FBS and 1% antibiotic-antimycotic (10 units/ml penicillin, 100 µg/ml streptomycin, 0.25 µg/ml amphotericin) under 37°C and 5% CO2 conditions.
To perform the ELISA assay, 10,000 pg/ml, 5,000 pg/ml, 2,500 pg/ml, 1,250 pg/ml, 625 pg/ml, 312 pg/ml, and 156 pg/ml of Human ACE standard solutions and a standard dilution buffer were added by 0.1 ml to each well of an antibody-coated 96-well plate. […] Thereafter, each well was added with 90 µl of the prepared TMB solution, incubated for 20 to 25 minutes in a dark room at 37°C, and then treated with each 0.1 ml of the prepared TMB stop solution to stop an ACE ELISA reaction, and the OD absorbance at 450 nm was read in a microplate reader within 30 minutes, and the relative OD450 was derived using the following Equation. […]

[6] = SGLT-2 inhibitor ingredient (second value of cell), Acceleration 1 week
[7] = SGLT-2 inhibitor ingredient (second value of cell), Acceleration 2 week
[8] = SGLT-2 inhibitor ingredient (second value of cell), Acceleration 3 week
[9] = SGLT-2 inhibitor ingredient (second value of cell), Acceleration 4 week
[10] = SGLT-2 inhibitor ingredient (second value of cell), Initial
[11] = color, agglomeration, etc., Initial
[12] = 15 µM high-concentration groups
[13] = low-concentration groups of 2.5 µM to 10 µM
[14] = ARB ingredient (first value of cell), Acceleration 1 week, 40 ± 2°C/75 ± 5% relative humidity
[15] = ARB ingredient (first value of cell), Acceleration 2 week
[16] = ARB ingredient (first value of cell), Acceleration 3 week
[17] = ARB ingredient (first value of cell), Acceleration 4 week
[18] = ARB ingredient (first value of cell), Initial

| Compound | flexible substance ([1]; Acceleration 1 week) | property ([1]; Acceleration 1 week) | flexible substance ([1]; Acceleration 2 week) | property ([1]; Acceleration 2 week) | flexible substance ([1]; Acceleration 3 week) | property ([1]; Acceleration 3 week) | flexible substance ([1]; Acceleration 4 week) | property ([1]; Acceleration 4 week) | flexible substance ([1]; Initial) | property [1, 11] | mRNA expression of ACE [2, 13] | other results |
| --- | --- | --- | --- | --- | --- | --- | --- | --- | --- | --- | --- | --- |
| Cc1ccc([C@@H]2O[C@H](CO)[C@@H](O)[C@H](O)[C@H]2O)cc1Cc1ccc(-c2ccc(F)cc2)s1 [Com. Ex. 21, Canagliflozin] | 1.0 or less | unsuitable | 5.0 or more | unsuitable | 5.0 or more | unsuitable | 5.0 or more | unsuitable | 0.1 or less | suitable |  | content [1, 6]: 95.2%; content [1, 7]: 89.2%; content [1, 8]: 85.2%; content [1, 9]: 80.1%; content [1, 10]: 99.5% |
| CCCc1nc2c(C)cc(-c3nc4ccccc4n3C)cc2n1Cc1ccc(-c2ccccc2C(=O)O)cc1 [Comparative Example 14, Telmisartan] |  |  |  |  |  |  |  |  |  |  |  | mRNA expression of ACE [2, 12]: decrease below the normal level |
| CCOc1ccc(Cc2cc([C@@H]3O[C@H](CO)[C@@H](O)[C@H](O)[C@H]3O)ccc2Cl)cc1 [Dapagliflozin, (1S)-1,5-anhydro-1-C-{4-chloro-3-[(4-ethoxyphenyl)methyl]phenyl}-D-glucitol] |  |  |  |  |  |  |  |  |  |  | did not decrease to a normal level | difference in AUCall between groups in the single administration group and the combined administration group [3]: 1.0 times; GLU ([4]; blood test): decreased; Cmax of Dapagliflozin (T/R ratio) (in the presence of Telmisartan, 90% confidence interval 0.93 to 1.12): approximately 1.02 times; AUC of Dapagliflozin (T/R ratio) (in the presence of Telmisartan, 90% confidence interval 0.97 to 1.03): approximately 1.00 times |
| CCCCC(=O)N(Cc1ccc(-c2ccccc2-c2nnn[nH]2)cc1)[C@H](C(=O)O)C(C)C [Com. Ex. 20, Valsartan] | 0.1 or more | suitable | 0.1 or more | suitable | 0.1 or more | suitable | 0.1 or more | suitable | 0.1 or less | suitable |  | content [1, 14]: 99.4%; content [1, 15]: 99.2%; content [1, 16]: 99%; content [1, 17]: 98.7%; content [1, 18]: 99.7% |
| OC[C@H]1O[C@@H](c2ccc(Cl)c(Cc3ccc(O[C@H]4CCOC4)cc3)c2)[C@H](O)[C@@H](O)[C@@H]1O [Comparative Example 8, Empagliflozin] |  |  |  |  |  |  |  |  |  |  |  | mRNA expression of ACE [2, 12]: decrease below the normal level |
| CCCc1nc(C(C)(C)O)c(C(=O)O)n1Cc1ccc(-c2ccccc2-c2nnn[nH]2)cc1 [olmesartan] |  |  |  |  |  |  |  |  |  |  |  | cell survival rate (A549 cells): no effect on cell survival rate; cell survival rate (MDCK cells): no effect on cell survival rate |
| CCCc1nc2c(C)cc(-c3nc4ccccc4n3C)cc2n1Cc1ccc(-c2ccccc2C(=O)O)cc1 [Telmisartan, 4'-[(1,4'-dimethyl-2'-propyl[2,6'-bi-1H-benzimidazol]-1'-yl)methyl][1,1'-biphenyl]-2-carboxylic acid] |  |  |  |  |  |  |  |  |  |  | did not decrease to a normal level | difference in AUCall between groups in the single administration group and the combined administration group [3]: 1.0 times; ACE expression inhibition effect ([5]; 25 µM treatment group): the best; ACE expression inhibition effect ([5]; all treatment concentrations (10, 25, 50 µM)): superior to that of olmesartan; cell survival rate (A549 cells): no effect on cell survival rate; body weight measurement [4]: a tendency for inhibiting weight gain; Cmax of Telmisartan (T/R ratio) (in the presence of Dapagliflozin, 80 mg / 10 mg, 90% confidence interval 0.99 to 1.43): approximately 1.19 times; mRNA expression ([2]; 25 µM treatment group, FIG. 4): mostly inhibited; mRNA expression inhibition effect ([2]; all treatment concentrations, FIG. 4): superior to that of olmesartan; cell survival rate (MDCK cells): no effect on cell survival rate |
| OC[C@H]1O[C@@H](c2ccc(Cl)c(Cc3ccc(O[C@H]4CCOC4)cc3)c2)[C@H](O)[C@@H](O)[C@@H]1O [Empagliflozin, (1S)-1,5-anhydro-1-C-[4-chloro-3-[[4-[[(3S)-tetrahydro-3-furanyl]oxy]phenyl]methyl]phenyl]-D-glucitol] |  |  |  |  |  |  |  |  |  |  | did not decrease to a normal level |  |
| CCCc1nc2c(C)cc(-c3nc4ccccc4n3C)cc2n1Cc1ccc(-c2ccccc2C(=O)O)cc1 [Com. Ex. 16, Telmisartan] | 0.1 or less | suitable | 0.1 or less | suitable | 0.1 or less | suitable | 0.1 or less | suitable | 0.1 or less | suitable |  | content [1, 14]: 100.1%; content [1, 15]: 100%; content [1, 16]: 100%; content [1, 17]: 100%; content [1, 18]: 100.1% |
| OC[C@H]1O[C@@H](c2ccc(Cl)c(Cc3ccc(O[C@H]4CCOC4)cc3)c2)[C@H](O)[C@@H](O)[C@@H]1O [Com. Ex. 17, Empagliflozin] | 1.0 or less | suitable | 1.0 or more | suitable | 5.0 or more | unsuitable | 5.0 or more | unsuitable | 0.1 or less | suitable |  | content [1, 6]: 97.3%; content [1, 7]: 95.1%; content [1, 8]: 85.4%; content [1, 9]: 80.2%; content [1, 10]: 99.9% |
